In paper PMC4459817, “Vasculotide reduces endothelial permeability and tumor cell extravasation in the absence of binding to or agonistic activation of Tie2” (EMBO Molecular Medicine, 2015):

Tested on: Tie2 in lung, kidney, liver homogenates
Assay: in vivo Tie2 phosphorylation in liver, lungs, kidneys
Set-up: species or system mouse
Procedure: Tumor-free mice were treated for 1 week with either vehicle, VT (250 ng/2 days), SU (60 mg/kg/day), or VT+SU and then sacrificed 5 h after their last doses of treatment. Tissue homogenates derived from EC-rich organs (livers, lungs, kidneys) were subjected to Tie2 immunoprecipitation and then immunoblotted for phosphorylated Tie2 (Fig8: ‘p-Tie2’) or total Tie2 (Fig8: ‘Tie2’).
Figure 8 In vivo Vasculotide treatments: effects on Tie2 receptor phosphorylation in vascular-rich organs (liver, lungs, and kidneys) • Healthy non-tumor-bearing mice (n = 8–9 per group) were treated for 1 week with vehicle (Veh); Vasculotide 250 ng/2 days IP (VT); sunitinib 60 mg/kg/day PO (SU); or VT + SU. Tie2 immunoprecipitates from lung, kidney, or liver homogenates were pooled from two mice per treatment group and immunoblotted with an anti-Tie2 antibody (‘Tie2’) or an anti-phosphotyrosine antibody (‘p-Tie2’). • Densitometry analysis of immunoblots from (A). pTie2/Tie2 ratios were internally normalized to the vehicle group within each blot. Means ± SEM and P values (unpaired t-tests) are depicted. Source data are available online for this figure.
5. Bioluminescence imaging (BI) of tumor burden
For in vivo BI: Mice were injected intraperitoneally with 150mg/kg luciferin (Promega) 10 minutes prior to and anesthetized with isofluorane just before luminescent pseudocolor imaging (uniform settings: CCD camera locked at -105 °C, exposure=60s, f/1, subject size=1.5cm, bin=8, FOV=23.2cm, full image correction) using the IVIS 200 Imaging System (Caliper/PerkinElmer). Using the Living Image software (v2.50.1, Xenogen), weekly images were analyzed under uniform color range on grayscale photographic overlay. Total fluxes (photons/sec) were quantified within consistent regions of interest and statistically compared ideally at a timepoint before any deaths have occurred. […]
Quantification procedure involved visual survey of entire tissue sections and tallying of DAB-stained metastatic nodules sizes (# cells) at 20-40X on a Leica DM LB2 Microscope. […]

Molecule	Tie2 phosphorylation, sunitinib effect (SU 60 mg/kg/day, stated in Discussion)	ratio of phosphorylated Tie2 relative to total Tie2 (pTie2/Tie2) (1 week, VT 250 ng/2 days IP, SU 60 mg/kg/day PO or VT + SU, liver, lungs, kidneys, n = 8–9, Fig8)	lung-specific pTie2/Tie2 vs. vehicle (VT 250 ng/2 days IP, 1 week, unpaired t-test, Fig8)
CCN(CC)CCNC(=O)c1c(C)[nH]c(/C=C2\C(=O)Nc3ccc(F)cc32)c1C [sunitinib, reference compound]	inhibition of Tie2 phosphorylation	–	–
CHHHRHSF [Vasculotide, 4-armed maleimide-functionalized polyethylene glycol (PEG) backbone to link together four cysteine-capped T7 peptides, that is, CHHHRHSF]	–	did not increase the ratio of phosphorylated Tie2 relative to total Tie2	significantly lower
